Values after ≈ are worked out from the molar mass of the structure shown. Where two headings read alike, the source gives them in different places. Non-standard residues stand in square brackets, D forms with d. Residues, ends and D or L forms follow the SMILES beside them. *: point of attachment. Butyryl = CCCC(=O)*
Tests used:
[1] = system: human erythrocytes; details: 150 μM peptide; 0.5% (v/v) red blood cell suspension in PBS, 1 h at 37 °C, absorbance 414 nm; melittin positive control, PBS negative control; three wells
Procedure: PBS served as the negative control and 5 μM melittin served as the positive control. All melittin solutions were prepared in Protein LoBind Eppendorf tubes to prevent the adsorption of melittin to the inner surface of the tubes.
Preparation of peptide solutions and melittin: A 5 μM melittin solution in PBS was prepared the day before the hemolysis experiment. First, 150 μL of this solution was transferred to each of the positive control wells and stored in the fume hood to coat the wells. On the day of the experiment, the melittin solution was discarded and the wells were washed with 3 × PBS. A 2.5 μM melittin solution in PBS was prepared and 75 μL was transferred to the wells. PBS (150 μL) was used as the negative control. A solution of each peptide was prepared by dissolving the peptide in 0.5 mL PBS to obtain a concentration of 300 μM. Each peptide solution (150 μL) was transferred to the wells in three wells each in row A, and the plate was diluted down.
Preparation of the red blood cell suspension: 1 mL of type O- whole blood in citrate was transferred to a cryotube. The whole blood was washed with 3 × PBS; adding 3, 3, and 4 mL of PBS, respectively. In between, the blood was centrifuged for 8 min (3000, 3000, and 4000 rpm, respectively) and the supernatant was removed after each centrifugation. A 0.5% (v/v) blood suspension was prepared by adding 40 μL of the washed blood cells to 8 mL of PBS. Then, 75 μL of the red blood cell suspension was transferred to each well and mixed gently. The plate was sealed and incubated for 1 h at 37 °C. After incubation, the plate was centrifuged at 4000 rpm for 10 min. Afterwards, 60 μL of the supernatant from each well was quickly transferred to an ELISA plate.
The absorbance was determined at 414 nm, and Equation (1) below was used to calculate the hemolytic activity of the peptides.

[2] = system: S. aureus (ATCC 29213); assay: MIC determination, broth microdilution; assay type: cell-based, Staphylococcus aureus; details: for MIC SA: S. aureus ATCC 29213, MHB-II, 37 °C, 18–24 h, triplicate
Procedure: (§1) The following bacteria were grown in cation-adjusted Muller-Hinton broth at 37 °C with shaking: A. baumannii (ATCC 19606), E. coli (ATCC 25922), K. pneumoniae (ATCC 13883), P. aeruginosa (ATCC 27853), and S. aureus (ATCC 29213).
(§2) The MIC experiments were performed in triplicate, as described in Jensen et al.. Briefly, all peptide stock solutions were prepared by dissolving each peptide in Milli-Q water to obtain a concentration of 10 mg/mL. A bacterial concentration of 10^6 CFU/mL was obtained through the dilution of an overnight culture (MHB-II medium). When the overnight culture was prepared, the OD was measured using a spectrophotometer and when an OD value between 0.2 and 0.4 was obtained, the culture was diluted to OD = 0.002. The MIC determination was carried out in 96-well polypropylene microtitre plates. […] A final bacterial inoculum of 5 × 10^5 CFU/mL per well was obtained by adding 50 μL bacterial suspension to the microtiter plates. The plates were incubated at 37 °C for 18–24 h. To verify the CFU, 10 μL of bacteria suspension was transferred to 990 μL 0.9 % saline solution, from which a 10-fold dilution was carried out. Then, 100 μL of the dilution was plated on an LB plate and left for bacterial growth overnight at 37 °C. Colistin and vancomycin were used as the positive controls.

[3] = system: E. coli (ATCC 25922); assay type: cell-based, Escherichia coli; details: E. coli ATCC 25922, MHB-II, 37 °C, 18–24 h, triplicate
Procedure: as §1, §2

[4] = system: P. aeruginosa (ATCC 27853); assay type: cell-based, Pseudomonas aeruginosa; details: P. aeruginosa ATCC 27853, MHB-II, 37 °C, 18–24 h, triplicate
Procedure: as §1, §2

[5] = system: A. baumannii (ATCC 19606); assay type: cell-based, Acinetobacter baumannii; details: A. baumannii ATCC 19606, MHB-II, 37 °C, 18–24 h, triplicate
Procedure: as §1, §2

[6] = system: K. pneumoniae (ATCC 13883); assay type: cell-based, Klebsiella pneumoniae; details: K. pneumoniae ATCC 13883, MHB-II, 37 °C, 18–24 h, triplicate
Procedure: as §1, §2

[7] = Hydrophobicity by analytical RP-HPLC (%B at elution); assay type: physicochemical; details: chromatographic, analytical reversed-phase HPLC, Waters Symmetry C18 5 μm 4.6 × 250 mm; A: H2O + 0.1% TFA, B: 90:10 ACN-H2O + 0.1% TFA
Procedure: Peptide purity was determined as described previously by analytical RP-HPLC using a Waters 717 plus Autosampler, In-line Degasser AF, 600 Controller, and 2996 Photodiode Array Detector; the column used was a Waters Symmetry C18 column (5 μm, 4.6 mm × 250 mm, Milford, MA, USA). An aqueous acetonitrile (ACN) gradient with 0.1% TFA added (mixing eluent A: H2O + 0.1% TFA and eluent B: 90:10 ACN-H2O + 0.1% TFA) was employed using milli-Q water. Preparative RP-HPLC was performed by using a Waters XSelect Peptide CSH C18 OBDTM column (5 μm, 19 mm × 250 mm, Milford, MA, USA) with the same eluents as for analytical HPLC.
*Hydrophobicity as indicated by the percentage of mobile phase B (%B) at the peak elution time on analytical

## CCCC(=O)N[C@H](CCCCN)C(=O)N[C@H](CCCCN)C(=O)N[C@H](CC(C)C)C(=O)N[C@H](Cc1ccccc1)C(=O)N[C@H](CCCCN)C(=O)N[C@H](CCCCN)C(=O)N[C@@H](C(=O)N[C@H](CC(C)C)C(=O)N[C@H](CCCNC(=N)N)C(=O)N[C@H](Cc1ccc(O)cc1)C(=O)N[C@H](CC(C)C)C(N)=O)[C@H](C)CC [compound 1] (Butyryl-[dK][dK][dL][dF][dK][dK][dI][dL][dR][dY][dL]-NH2)
[1]
  % hemolysis of human erythrocytes: 100%
[2]; inoculum 5 × 10^5 CFU/mL
  MIC SA: 64 µg/mL
[2]; value in brackets
  MIC SA: 42.1 µM
[3]; inoculum 5 × 10^5 CFU/mL
  MIC EC: 2 µg/mL
[3]; value in brackets
  MIC EC: 1.3 µM
[4]; inoculum 5 × 10^5 CFU/mL
  MIC PA: 32 µg/mL
[4]; value in brackets
  MIC PA: 21.1 µM
[5]; inoculum 5 × 10^5 CFU/mL
  MIC AB: 2 µg/mL
[5]; value in brackets
  MIC AB: 1.3 µM
[6]; inoculum 5 × 10^5 CFU/mL
  MIC KP: 4 µg/mL
[6]; value in brackets
  MIC KP: 2.6 µM

## CCCCCCCCCCCC(=O)N[C@H](CCCCN)C(=O)N[C@H](CCCCN)C(=O)N[C@H](CC(C)C)C(=O)N[C@H](Cc1ccccc1)C(=O)N[C@H](CCCCN)C(=O)N[C@H](CCCCN)C(=O)N1CCCC[C@H](C(N)=O)NC(=O)[C@@H](Cc2ccc(O)cc2)NC(=O)[C@@H](CCCNC(=N)N)NC(=O)[C@@H](CC(C)C)NC(=O)[C@@H]([C@H](C)CC)NC(=O)C1 [compound 17]
[7]
  %B (hydrophobicity: percentage of mobile phase B at the peak elution time): 65.5 %B
[2]; inoculum 5 × 10^5 CFU/mL
  MIC SA: 4 µg/mL
[2]; value in brackets
  MIC SA: 2.4 µM
[3]; inoculum 5 × 10^5 CFU/mL
  MIC EC: 8 µg/mL
[3]; value in brackets
  MIC EC: 4.7 µM
[4]; inoculum 5 × 10^5 CFU/mL
  MIC PA: 8 µg/mL
[4]; value in brackets
  MIC PA: 4.8 µM
[5]; inoculum 5 × 10^5 CFU/mL
  MIC AB: 4 µg/mL
[5]; value in brackets
  MIC AB: 2.4 µM

## CN[C@H](CC(C)C)C(=O)N[C@H]1C(=O)N[C@@H](CC(N)=O)C(=O)N[C@H]2C(=O)N[C@H]3C(=O)N[C@H](C(=O)N[C@H](C(=O)O)c4cc(O)cc(O)c4-c4cc3ccc4O)[C@H](O)c3ccc(c(Cl)c3)Oc3cc2cc(c3O[C@@H]2O[C@H](CO)[C@@H](O)[C@H](O)[C@H]2O[C@H]2C[C@](C)(N)[C@H](O)[C@H](C)O2)Oc2ccc(cc2Cl)[C@H]1O [Vancomycin, reference compound]
[2]; inoculum 5 × 10^5 CFU/mL
  MIC SA: 0.5 µg/mL
[2]; Staphylococcus aureus, ATCC29213, read-out: MIC SA
  MIC: 0.35 µM (≈ 0.507 µg/mL)

## CCCCCCCCCCCCCC(=O)N[C@H](CCCCN)C(=O)N[C@H](CCCCN)C(=O)N[C@H](CC(C)C)C(=O)N[C@H](Cc1ccccc1)C(=O)N[C@H](CCCCN)C(=O)N[C@H](CCCCN)C(=O)N1CCCC[C@H](C(N)=O)NC(=O)[C@@H](Cc2ccc(O)cc2)NC(=O)[C@@H](CCCNC(=N)N)NC(=O)[C@@H](CC(C)C)NC(=O)[C@@H]([C@H](C)CC)NC(=O)C1 [compound 18]
[7]
  %B (hydrophobicity: percentage of mobile phase B at the peak elution time): 78.5 %B
[2]; inoculum 5 × 10^5 CFU/mL
  MIC SA: 4 µg/mL
[2]; value in brackets
  MIC SA: 2.3 µM
[3]; inoculum 5 × 10^5 CFU/mL
  MIC EC: 8 µg/mL
[3]; value in brackets
  MIC EC: 4.6 µM
[4]; inoculum 5 × 10^5 CFU/mL
  MIC PA: 16 µg/mL
[4]; value in brackets
  MIC PA: 9.3 µM
[5]; inoculum 5 × 10^5 CFU/mL
  MIC AB: 4 µg/mL
[5]; value in brackets
  MIC AB: 2.3 µM
[6]; inoculum 5 × 10^5 CFU/mL
  MIC KP: 32 µg/mL
[6]; value in brackets
  MIC KP: 18.7 µM

## CCCCCCCCCCCCCC(=O)N[C@H](CCCCN)C(=O)N[C@H](CCCCN)C(=O)N[C@H](CC(C)C)C(=O)N[C@H](Cc1ccccc1)C(=O)N[C@H](CCCCN)C(=O)N[C@H](CCCCN)C(=O)N[C@@H](C(=O)N[C@H](CC(C)C)C(=O)N1CCCC[C@H](C(N)=O)NC(=O)[C@@H](Cc2ccc(O)cc2)NC(=O)[C@@H](CCCNC(=N)N)NC(=O)C1)[C@H](C)CC [compound 12]
[7]
  %B (hydrophobicity: percentage of mobile phase B at the peak elution time): 70.0 %B
[2]; inoculum 5 × 10^5 CFU/mL
  MIC SA: 8 µg/mL
[2]; value in brackets
  MIC SA: 4.6 µM
[3]; inoculum 5 × 10^5 CFU/mL
  MIC EC: 8 µg/mL
[3]; value in brackets
  MIC EC: 4.6 µM
[4]; inoculum 5 × 10^5 CFU/mL
  MIC PA: 16 µg/mL
[4]; value in brackets
  MIC PA: 9.3 µM
[5]; inoculum 5 × 10^5 CFU/mL
  MIC AB: 16 µg/mL
[5]; value in brackets
  MIC AB: 9.3 µM
[6]; inoculum 5 × 10^5 CFU/mL
  MIC KP: 4 µg/mL
[6]; value in brackets
  MIC KP: 2.3 µM
